Laboratory results reported in patent US20060069132A1, “Azolecarboxamide herbicides” (priority 2004, published 2006).

Key:
cocklebur = experiment: Test B pre-/postemergence herbicide test; assay type: in vivo, Xanthium strumarium; conditions: for Cocklebur plant response rating: postemergence, visual rating, scale 0 (no effect) to 100 (complete control)
Outline: (§1)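 Pre: seeds sown, then sprayed. Post: 1–4-leaf plants (2–18 cm) sprayed at the same time. Paddy: flooded, treated at 2-leaf stage. Formulation: non-phytotoxic solvent with surfactant. Greenhouse 13–15 days; visual 0–100 score relative to controls.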

Surinam grass = experiment: Test B pre-/postemergence herbicide test; assay type: in vivo, Urochloa decumbens; conditions: for Surinam Grass plant response rating: postemergence, visual rating, scale 0 (no effect) to 100 (complete control)
Outline: (§2)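 Flooded paddy rice and barnyardgrass were treated at the 2-leaf stage; upland plantings received compound either on sown seed or on 1- to 4-leaf seedlings. All were kept 13–15 days in a greenhouse and scored visually, 0–100, relative to untreated plants.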

morningglory [1] = experiment: Test A pre-/postemergence herbicide test; assay type: in vivo, Ipomoea spp.
Outline: (§3)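 Pre: seeded sandy loam, directed soil spray, compound in non-phytotoxic solvent + surfactant. Post: 1–2-leaf plants (2–10 cm), sprayed to runoff. Greenhouse ~10 d; visual injury vs untreated, 0–100 scale.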

pigweed = experiment: Test B pre-/postemergence herbicide test; assay type: in vivo, Amaranthus retroflexus; conditions: for Pigweed plant response rating: postemergence, visual rating, scale 0 (no effect) to 100 (complete control)
Outline: as §2

corn = experiment: Test B pre-/postemergence herbicide test; assay type: in vivo, Zea mays; conditions: for Corn plant response rating: postemergence, visual rating, scale 0 (no effect) to 100 (complete control)
Outline: as §2

rice [2] = experiment: Test B flooded paddy test; assay type: in vivo, Oryza sativa; conditions: 1000 g ai/ha, visual rating, scale 0 to 100 (0 no effect, 100 complete control), 13 to 15 days
Outline: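 After treating 2-leaf paddy plants or 2–18 cm postemergence plants (1 to 4 leaves) with formulated chemical, researchers kept them in a greenhouse for 13–15 days. Effects were judged visually versus controls: 0 indicates none, 100 total control.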

large crabgrass [3] = experiment: Test B pre-/postemergence herbicide test; assay type: in vivo, Digitaria sanguinalis; conditions: for Crabgrass, Large plant response rating: postemergence, visual rating, scale 0 (no effect) to 100 (complete control)
Outline: as §2

velvetleaf [4] = experiment: Test A pre-/postemergence herbicide test; assay type: in vivo, Abutilon theophrasti
Outline: as §3

morningglory [5] = experiment: Test B pre-/postemergence herbicide test; assay type: in vivo, Ipomoea coccinea; conditions: for Morningglory plant response rating: postemergence, visual rating, scale 0 (no effect) to 100 (complete control)
Outline: as §1

barnyardgrass [6] = experiment: Test B flooded paddy test; assay type: in vivo, Echinochloa crus-galli; conditions: 1000 g ai/ha, visual rating, scale 0 to 100 (0 no effect, 100 complete control), 13 to 15 days
Outline: (§4)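 Read-out: visual comparison with controls, scored 0 to 100, where 100 means complete control and 0 no effect. Formulated chemicals were applied postemergence to plants 2–18 cm tall (1- to 4-leaf), or to flooded-paddy plants at the 2-leaf stage, then held 13 to 15 days under glass.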

giant foxtail [7] = experiment: Test B pre-/postemergence herbicide test; assay type: in vivo, Setaria faberi; conditions: for Foxtail, Giant plant response rating: postemergence, visual rating, scale 0 (no effect) to 100 (complete control)
Outline: as §2

blackgrass = experiment: Test B postemergence herbicide test; assay type: in vivo, Alopecurus myosuroides; conditions: postemergence, visual rating, scale 0 (no effect) to 100 (complete control)
Outline: as §4

[8] = test system: small flower umbrella sedge; experiment: Test B flooded paddy test; assay type: in vivo, Cyperus difformis; conditions: 1000 g ai/ha, visual rating, scale 0 to 100 (0 no effect, 100 complete control), 13 to 15 days
Outline: as §4

barnyardgrass [9] = experiment: Test B pre-/postemergence herbicide test; assay type: in vivo, Echinochloa crus-galli; conditions: for Barnyardgrass plant response rating: postemergence, visual rating, scale 0 (no effect) to 100 (complete control)
Outline: as §1

giant foxtail [10] = experiment: Test A pre-/postemergence herbicide test; assay type: in vivo, Setaria faberi
Outline: as §3

velvetleaf [11] = experiment: Test B pre-/postemergence herbicide test; assay type: in vivo, Abutilon theophrasti; conditions: for Velvetleaf plant response rating: postemergence, visual rating, scale 0 (no effect) to 100 (complete control)
Outline: as §2

barnyardgrass [12] = experiment: Test A pre-/postemergence herbicide test; assay type: in vivo, Echinochloa crus-galli
Outline: as §3

rice [13] = experiment: Test B pre-/postemergence herbicide test; assay type: in vivo, Oryza sativa; conditions: preemergence
Outline: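 Evaluation is visual, comparing treated with control plants on a scale where 0 means no effect and 100 means full control. Treatments were preemergence, or postemergence on seedlings 2–18 cm tall, and held 13–15 days in the greenhouse.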

large crabgrass [14] = experiment: Test A pre-/postemergence herbicide test; assay type: in vivo, Digitaria sanguinalis
Outline: as §3

wild oat = experiment: Test B postemergence herbicide test; assay type: in vivo, Avena fatua; conditions: postemergence, visual rating, scale 0 (no effect) to 100 (complete control)
Outline: (§5)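 Each value is a visual 0–100 response rating taken against controls 13 to 15 days after treatment in the greenhouse. Plants received formulated chemical postemergence at the 1- to 4-leaf stage or, in flooded paddy, at the 2-leaf stage.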

redroot pigweed = experiment: Test A pre-/postemergence herbicide test; assay type: in vivo, Amaranthus retroflexus
Outline: as §3

wheat = experiment: Test B postemergence herbicide test; assay type: in vivo, Triticum aestivum; set-up: key to Wheat plant response rating: 0 = no effect, 100 = complete control; conditions: postemergence, visual rating, scale 0 (no effect) to 100 (complete control)
Outline: as §5

lambsquarters = experiment: Test B pre-/postemergence herbicide test; assay type: in vivo, Chenopodium album; conditions: for Lambsquarters plant response rating: postemergence, visual rating, scale 0 (no effect) to 100 (complete control)
Outline: as §2

ducksalad = experiment: Test B flooded paddy test; assay type: in vivo, Heteranthera limosa; conditions: 1000 g ai/ha, visual rating, scale 0 to 100 (0 no effect, 100 complete control), 13 to 15 days
Outline: as §4

[15] = 125 g ai/ha, 0 = no effect, 100 = complete control, preemergence
[16] = 500 g ai/ha, visual rating 0-100, 0 no effect, 100 complete control, preemergence
[17] = Postemergence, 500 g ai/ha, 0 to 100 scale, 0 no effect, 100 complete control
[18] = Postemergence, 2000 g ai/ha, 0 to 100 scale, 0 no effect, 100 complete control
[19] = Preemergence, 2000 g ai/ha, visual rating, 0 to 100 scale (0 no effect, 100 complete control)
[20] = preemergence, 500 g ai/ha, visual injury, 0 to 100 scale (0 no effect, 100 complete control)

CCc1nc(C(C)(C)C)sc1C(=O)Nc1cccc(C(=O)NCC(F)(F)F)c1 [Compound 206]
30: Pigweed plant response rating (pigweed; 125 g ai/ha) | Rice plant response rating (rice [2]) | Crabgrass, Large plant response rating (large crabgrass [3]; 500 g ai/ha) | Plant response rating, Rice (rice [13]; 500 g ai/ha, visual rating 0-100, 0 no effect, 100 complete control) | Plant response rating, Lambsquarters (lambsquarters; [16]) | Lambsquarters plant response rating (lambsquarters; 125 g ai/ha)
20: Cocklebur plant response rating (cocklebur; 125 g ai/ha) | Plant response rating, Surinam Grass (Surinam grass; [16]) | Surinam Grass plant response rating (Surinam grass; 500 g ai/ha) | Corn plant response rating (corn; 125 g ai/ha) | Corn plant response rating (corn; 500 g ai/ha) | Plant response rating, Velvetleaf (velvetleaf [4]; [18]) | Plant response rating, Morningglory (morningglory [5]; [16]) | Morningglory plant response rating (morningglory [5]; 125 g ai/ha) | Morningglory plant response rating (morningglory [5]; 500 g ai/ha) | Plant response rating, Foxtail, Giant (giant foxtail [7]; [16]) | Foxtail, Giant plant response rating (giant foxtail [7]; 125 g ai/ha) | Foxtail, Giant plant response rating (giant foxtail [7]; 500 g ai/ha) | Blackgrass plant response rating (blackgrass; 500 g ai/ha) | Foxtail, Giant plant response rating (giant foxtail [10]; [19]) | Velvetleaf plant response rating (velvetleaf [11]; 125 g ai/ha) | Velvetleaf plant response rating (velvetleaf [11]; 500 g ai/ha) | Crabgrass, Large plant response rating (large crabgrass [14]; [19]) | Crabgrass, Large plant response rating (large crabgrass [14]; [20]) | Oat, Wild plant response rating (wild oat; 125 g ai/ha) | Oat, Wild plant response rating (wild oat; 500 g ai/ha) | Plant response rating, Pigweed (redroot pigweed; [18]) | Wheat plant response rating (wheat; 125 g ai/ha) | Wheat plant response rating (wheat; 500 g ai/ha)
50: Sedge, Umbrella plant response rating [8]
70: Plant response rating, Barnyardgrass (barnyardgrass [9]; [16])
0: Cocklebur plant response rating (0 to 100 scale) (cocklebur; [15]) | Plant response rating, Cocklebur (cocklebur; [16]) | Surinam Grass plant response rating (0 to 100 scale) (Surinam grass; [15]) | Morningglory plant response rating (morningglory [1]; [17]) | Plant response rating, Morningglory (morningglory [1]; [18]) | Pigweed plant response rating (0 to 100 scale) (pigweed; [15]) | Corn plant response rating (0 to 100 scale) (corn; [15]) | Morningglory plant response rating (0 to 100 scale) (morningglory [5]; [15]) | Foxtail, Giant plant response rating (0 to 100 scale) (giant foxtail [7]; [15]) | Blackgrass plant response rating (blackgrass; 125 g ai/ha) | Barnyardgrass plant response rating (barnyardgrass [9]; 125 g ai/ha) | Foxtail, Giant plant response rating (giant foxtail [10]; [17]) | Plant response rating, Foxtail, Giant (giant foxtail [10]; [18]) | Foxtail, Giant plant response rating (giant foxtail [10]; [20]) | Velvetleaf plant response rating (0 to 100 scale) (velvetleaf [11]; [15]) | Rice plant response rating (0 to 100 scale) (rice [13]; 125 g ai/ha, 0 = no effect, 100 = complete control) | Crabgrass, Large plant response rating (large crabgrass [14]; [17]) | Lambsquarters plant response rating (0 to 100 scale) (lambsquarters; [15])
10: Surinam Grass plant response rating (Surinam grass; 125 g ai/ha) | Crabgrass, Large plant response rating (0 to 100 scale) (large crabgrass [3]; [15]) | Crabgrass, Large plant response rating (large crabgrass [3]; 125 g ai/ha) | Velvetleaf plant response rating (velvetleaf [4]; [19]) | Barnyardgrass plant response rating (barnyardgrass [6]) | Barnyardgrass plant response rating (0 to 100 scale) (barnyardgrass [9]; [15]) | Barnyardgrass plant response rating (barnyardgrass [9]; 500 g ai/ha) | Plant response rating, Velvetleaf (velvetleaf [11]; [16]) | Plant response rating, Barnyardgrass (barnyardgrass [12]; [18]) | Barnyardgrass plant response rating (barnyardgrass [12]; [20])
40: Cocklebur plant response rating (cocklebur; 500 g ai/ha) | Pigweed plant response rating (pigweed; 500 g ai/ha) | Plant response rating, Corn (corn; [16]) | Ducksalad plant response rating (ducksalad)
80: Plant response rating, Pigweed (pigweed; [16]) | Lambsquarters plant response rating (lambsquarters; 500 g ai/ha)
15: Velvetleaf plant response rating (velvetleaf [4]; [20]) | Pigweed plant response rating (redroot pigweed; [17])
25: Morningglory plant response rating (morningglory [1]; [19]) | Pigweed plant response rating (redroot pigweed; [20])
5: Morningglory plant response rating (morningglory [1]; [20]) | Velvetleaf plant response rating (velvetleaf [4]; [17]) | Barnyardgrass plant response rating (barnyardgrass [12]; [17]) | Plant response rating, Crabgrass, Large (large crabgrass [14]; [18])
60: Plant response rating, Crabgrass, Large (large crabgrass [3]; [16]) | Barnyardgrass plant response rating (barnyardgrass [12]; [19]) | Pigweed plant response rating (redroot pigweed; [19])
